Laboratory results reported in patent publication US20250281453A1, “COMBINATION THERAPIES COMPRISING QTX125” (QUIMATRYX, S.L., priority 2022, published 2025).

Key:
[1] = tested on: Panc-1 pancreatic cancer cells; assay: QTX125-containing combination therapy, hexosaminidase cell viability; assay type: cell-based; conditions: for EC50: Homo sapiens, PANC-1, Panc-1; for combination index (C.I): Panc-1
Method: To assess the oncolytic efficacy of QTX125-containing combination therapies in vitro, colonic, pancreatic, hepatic and ovarian tumour cells were administered sorafenib, gemcitabine or bortezomib at EC25, EC50 and EC75 doses. QTX125 was co-administered in order to produce a dose response curve.
To prepare cells for viability assays, cells were transferred into 96 well tissue culture plates (Cultek), and resuspended in 100 µL at the following densities: 10,000 cells/well (Hep-G2 and MiaPaCa-2), 5000 cells/well (Panc-1 and SK-OV-3) or 3000 cells/well (HCT-116). Following 24 hours of incubation, media was removed and replaced with 100 µL media spiked with QTX125 and the test chemotherapeutic agents. Stock solutions for the agents used in this study are shown below in Table 1. Cells were incubated for a further 72 hours before cell viability was assessed using both ALAMAR® and hexosaminidase assays.
For the hexosaminidase assay, media containing QTX125 and the test chemotherapeutic agents was removed, and cells were washed once with PBS. 60 μL of substrate solution (containing: 7.5 mM p-nitrophenol-N-acetyl-beta-D-glucosamide [Sigma N-9376], 0.1 M sodium citrate, pH 5.0 and 0.25% Triton X-100) was added to each well and cells were incubated at 37° C. for at least 1 hour. Incubating cells in this manner causes the substrate solution to become bright yellow, at which point 90 μL of developer solution (containing 50 mM Glycine pH 10.4 and 5 mM EDTA) was added to each well. Absorbance at 410 nm was recorded using a plate reader.
Control values were normalised to 100% and percentage (%) viability was calculated. Data were used to plot log dose-response curves using a sigmoid dose-response (variable slope) equation. EC50 values were obtained using Equation 1, where ‘X’ is the logarithmic concentration; ‘Y’ is the response output and it is assumed that Y starts at bottom of the graph and reaches the top with an overall sigmoid shape.
Cls were obtained using Equation 2, where (Dm) 1 is the ECx concentration of QTX125 and (D) 1 is the ECx concentration of QTX125 in the presence of sorafenib, gemcitabine or bortezomib.
In order to assess the oncolytic efficacy of QTX125-containing combination therapies, monotherapy EC25, EC50 and EC75 doses for sorafenib, gemcitabine and bortezomib were calculated (as per Experiment 3) and administered to wells at these fixed concentrations. QTX125 was co-administered at a range of concentrations, in order to plot a dose-response curve such that the EC50 dose of QTX125 could be calculated in the presence of sorafenib/gemcitabine/bortezomib. QTX125 was administered to cells at a starting high-dose, and a 1:1 dilution was completed thereafter. In this part of the study, only the hexosaminidase assay was employed to assess cell viability following treatment with QTX125-containing combination therapies.
It should be noted that it was not possible to determine the appropriate concentrations for gemcitabine in all cell lines tested. In cells resistant to gemcitabine, nominal concentrations were used in place of EC25, EC50 and EC75 doses (e.g., nominal doses of 1, 10 and 100 µM were used in Panc-1 and Hep-G2 cells).

[2] = Genotoxicity (clastogenicity, aneugenicity); conditions: unlike other histone deacetylase inhibitors
[3] = Pharmacokinetic properties; assay type: in vivo; conditions: compared with other histone deacetylase inhibitors
HDAC 6 = target: T1, HDAC 6 (Homo sapiens, UniProt Q9UBN7); conditions: cited from earlier work
T1 sequence (Q9UBN7 1-1215): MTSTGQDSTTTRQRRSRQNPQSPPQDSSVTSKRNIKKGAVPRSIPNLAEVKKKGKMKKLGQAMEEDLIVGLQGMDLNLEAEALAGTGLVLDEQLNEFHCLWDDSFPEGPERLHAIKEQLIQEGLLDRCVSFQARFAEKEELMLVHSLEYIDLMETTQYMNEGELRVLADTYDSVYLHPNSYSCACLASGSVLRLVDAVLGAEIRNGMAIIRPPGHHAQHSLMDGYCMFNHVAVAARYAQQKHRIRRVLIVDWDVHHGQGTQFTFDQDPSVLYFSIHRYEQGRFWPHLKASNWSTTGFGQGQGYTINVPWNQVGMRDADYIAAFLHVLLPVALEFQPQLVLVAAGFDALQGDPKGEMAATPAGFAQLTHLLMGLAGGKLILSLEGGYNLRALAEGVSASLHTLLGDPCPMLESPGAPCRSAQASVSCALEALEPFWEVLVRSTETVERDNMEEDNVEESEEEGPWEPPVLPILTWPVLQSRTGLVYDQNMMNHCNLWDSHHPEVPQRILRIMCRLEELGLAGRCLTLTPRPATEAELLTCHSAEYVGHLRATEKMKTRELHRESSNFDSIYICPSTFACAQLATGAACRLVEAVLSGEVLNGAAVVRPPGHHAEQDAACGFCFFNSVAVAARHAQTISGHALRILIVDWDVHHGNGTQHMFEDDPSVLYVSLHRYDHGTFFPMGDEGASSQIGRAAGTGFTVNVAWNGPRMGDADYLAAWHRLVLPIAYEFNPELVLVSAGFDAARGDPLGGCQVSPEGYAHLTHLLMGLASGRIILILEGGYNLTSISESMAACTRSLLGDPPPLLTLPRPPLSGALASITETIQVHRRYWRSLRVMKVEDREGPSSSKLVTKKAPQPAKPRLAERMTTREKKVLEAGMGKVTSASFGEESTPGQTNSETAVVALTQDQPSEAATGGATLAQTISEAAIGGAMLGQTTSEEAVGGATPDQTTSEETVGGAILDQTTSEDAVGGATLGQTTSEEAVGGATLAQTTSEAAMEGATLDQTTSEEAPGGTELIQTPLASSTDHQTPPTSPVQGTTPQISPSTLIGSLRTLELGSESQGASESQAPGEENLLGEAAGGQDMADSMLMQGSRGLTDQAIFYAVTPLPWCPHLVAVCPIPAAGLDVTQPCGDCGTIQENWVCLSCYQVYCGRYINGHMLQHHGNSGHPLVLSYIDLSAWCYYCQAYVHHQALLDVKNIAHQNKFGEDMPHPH

[4] = tested on: mantle cell lymphoma, lung cancer and pancreatic cancer xenografts; conditions: lung cancer and pancreatic cancer xenograft murine models; cited from earlier work
[5] = + bortezomib at EC25 dose (0.007 μM)
[6] = + bortezomib at EC50 dose (0.009 μM)
[7] = + bortezomib at EC75 dose (0.015 μM)
[8] = + gemcitabine at EC25, nominal dose 1 μM
[9] = + gemcitabine at EC50, nominal dose 10 μM
[10] = + gemcitabine at EC75, nominal dose 100 μM
[11] = + sorafenib at EC25 dose (4.1 μM)
[12] = + sorafenib at EC50 dose (7.4 μM)
[13] = + sorafenib at EC75 dose (15 μM)

## O=C(NO)c1ccc(CNC(=O)c2[nH]c(-c3ccc(O)cc3)cc2-c2ccoc2)cc1 [QTX125, 3-(3-Furyl)-N-{4-[(hydroxyamino)carbonyl]benzyl}-5-(4-hydroxyphenyl)-1 Hpyrrole-2-carboxamide]
[1]; [5]
  EC50: 5.03 µM
  combination index (C.I): 0.3 arbitrary units
[1]; [6]
  EC50: 5.48 µM
  combination index (C.I): 0.3 arbitrary units
[1]; [7]
  EC50: 1.46 µM
  combination index (C.I): 0.1 arbitrary units
[1]; [8]
  EC50: 4.11 µM
  combination index (C.I): 0.3 arbitrary units
[1]; [9]
  EC50: 2.47 µM
  combination index (C.I): 0.2 arbitrary units
[1]; [10]
  EC50: 1.94 µM
  combination index (C.I): 0.1 arbitrary units
[1]; [11]
  EC50: 13.7 µM
  combination index (C.I): 1.3 arbitrary units
[1]; [12]
  EC50: 14.3 µM
  combination index (C.I): 1.4 arbitrary units
[1]; [13]
  EC50: 2.98 µM
  combination index (C.I): 0.3 arbitrary units
[1]; no second agent (control of Table 5.5.1)
  EC50: 10.2 µM
[1]; no second agent (control of Table 5.5.2)
  EC50: 14.7 µM
[1]; no second agent (control of Table 5.5.3)
  EC50: 18.2 µM
[2]
  genotoxicity, in particular clastogenicity or aneugenicity: no evidence of genotoxicity
[3]
  pharmacokinetic properties (half-lives and distribution volumes): higher half-lives and distribution volumes
HDAC 6
  HDAC 6 inhibition: highly selective and highly potent
[4]
  antitumoral efficacy: high antitumoral efficacy
